Test systems include ACHN renal; HCT-15 colon; IGROV1 ovarian; KM12 colon; SF-295 CNS; SF-539 CNS; SNB-75 CNS; SW-620 colon; U251 CNS; UACC-257 melanoma.
Holding throughout (assay): NCI anticancer screen, dose series, 48 h

Molecules are shown by their SMILES.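 Dose response: 5 concentrations. Exposure: 48 h. Format: 96-well plates. Endpoint: linear interpolation; highest concentration if not reached. Here, GI50 denotes the concentration required for 50% inhibition of growth. TGI: total growth inhibition.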

For `Fc1[nH]nc2ccc([C@@H]3Nc4ccc5[nH]ncc5c4[C@H]4C5CCC(C5)[C@@H]34)cc12` (stereo partly specified), the GI50 was 1.52 µM in the assay on ACHN renal; 0.495 µM in the assay on HCT-15 colon; 0.86 µM with IGROV1 ovarian; 0.559 µM with KM12 colon; 0.414 µM in the assay with SF-295 CNS; 0.854 µM with SF-539 CNS. Moreover, the GI50 with SNB-75 CNS was 0.503 µM; in the assay on SW-620 colon it was 0.472 µM; in the assay with U251 CNS, 1.02 µM; in the assay on UACC-257 melanoma, 10.4 µM. Also, the TGI with ACHN renal came out at 13.6 µM; in the assay on HCT-15 colon, 13.1 µM; with IGROV1 ovarian, 16 µM; with KM12 colon it was 11.5 µM; in the assay on SF-295 CNS, 10.6 µM; with SF-539 CNS it was 3.94 µM. In addition, the TGI in the assay with SNB-75 CNS came out at 3.93 µM; in the assay with SW-620 colon it was 17.3 µM; with U251 CNS, 13.5 µM; in the assay with UACC-257 melanoma, 23.9 µM.

Turning to `NC(N)=NS(=O)(=O)c1ccc(Nc2c3ccccc3nc3c(C(=O)NCCO)cccc23)cc1`, the GI50 in the assay with ACHN renal is 20 µM; in the assay on HCT-15 colon it was 32.2 µM; with IGROV1 ovarian, 17.8 µM; in the assay with KM12 colon it was 15.4 µM; in the assay on SF-295 CNS it was 20.5 µM; with SF-539 CNS, 29.5 µM. Moreover, the GI50 is 17.2 µM in the assay with SW-620 colon, 26 µM in the assay with U251 CNS and 39.4 µM with UACC-257 melanoma. Besides, the figures for the TGI in the assay on SF-295 CNS and in the assay on SNB-75 CNS were 60.7 µM and 55.2 µM, respectively.

Turning to `Cc1ccc(Cl)c2c(N=Nc3ccccc3[N+](=O)[O-])c(O)[nH]c12`, the TGI in the assay with ACHN renal was more than 100 µM; with HCT-15 colon, more than 100 µM; in the assay on IGROV1 ovarian, more than 100 µM; in the assay with KM12 colon it was more than 100 µM; in the assay with SF-295 CNS, more than 100 µM; with SF-539 CNS, 48.6 µM. Also, the TGI in the assay with SNB-75 CNS, with SW-620 colon, in the assay on U251 CNS and with UACC-257 melanoma was more than 100 µM throughout.

For the compound `COC1/C=C/OC2(C)Oc3c(C)c(O)c4c(O)c(c(/C=N/Nc5ccc([N+](=O)[O-])cc5[N+](=O)[O-])c(O)c4c3C2=O)NC(=O)C(C)=C/C=C/C(C)C(O)C(C)C(O)C(C)C(OC(C)=O)C1C` (stereo unspecified), the GI50 in the assay with ACHN renal was 3.56 µM; in the assay with HCT-15 colon, 5.86 µM; in the assay with IGROV1 ovarian, 1.87 µM; with KM12 colon, 1.71 µM; in the assay on SF-295 CNS, 5.64 µM; in the assay on SF-539 CNS it was 1.9 µM. Further, the GI50 with SNB-75 CNS was 1.8 µM; in the assay on SW-620 colon it was 1.19 µM; in the assay on U251 CNS it was 1.3 µM; in the assay with UACC-257 melanoma it was 1.48 µM. The TGI in the assay with ACHN renal is 11.4 µM; in the assay with HCT-15 colon, 31.1 µM; with IGROV1 ovarian, more than 50 µM; in the assay with KM12 colon, 6.68 µM; with SF-295 CNS, 20.1 µM; in the assay on SF-539 CNS, 19.4 µM. In addition, the TGI in the assay on SNB-75 CNS came to 10.3 µM; with SW-620 colon, 2.96 µM; in the assay with U251 CNS it was 3.55 µM; in the assay with UACC-257 melanoma, 5.58 µM.

For the compound `COc1cc2c(cc1OCCCCN1CCN(CC(=O)Nc3ccc(Cl)cc3C(=O)c3ccccc3Cl)CC1)N=CC1CCCN1C2=O` (stereo unspecified), the GI50 in the assay with ACHN renal is 0.431 µM; with HCT-15 colon it was 0.923 µM; with IGROV1 ovarian, 0.229 µM; in the assay on KM12 colon it was 0.215 µM; in the assay with SF-295 CNS, 0.237 µM; in the assay on SF-539 CNS, 0.236 µM. Also, the GI50 with SNB-75 CNS was 0.223 µM; with SW-620 colon, 0.238 µM; in the assay with U251 CNS, 0.327 µM; in the assay with UACC-257 melanoma it was 0.2 µM. The TGI is 1.01 µM in the assay on ACHN renal; 2.3 µM in the assay on HCT-15 colon; 0.519 µM in the assay on IGROV1 ovarian; 0.497 µM in the assay with KM12 colon; 0.509 µM with SF-295 CNS; 0.501 µM in the assay with SF-539 CNS. For the same compound, the TGI in the assay on SNB-75 CNS is 0.572 µM; in the assay with SW-620 colon, 0.726 µM; in the assay with U251 CNS it was 1.06 µM; with UACC-257 melanoma, 0.575 µM.

As for `CCN(CC)N=Nc1c(C(N)=O)n[nH]c1C`, the TGI with ACHN renal, with HCT-15 colon, in the assay on IGROV1 ovarian, in the assay on KM12 colon, in the assay on SF-295 CNS and in the assay on SF-539 CNS was more than 100 µM each time. Also, the TGI with SNB-75 CNS, in the assay with SW-620 colon, in the assay with U251 CNS and in the assay on UACC-257 melanoma was more than 100 µM in each case.

Consider `CC1(C(=O)O)CCC[C@@]2(C)C1CC[C@@]1(C)c3cocc3CCC21` (stereo partly specified), for which the TGI with ACHN renal, in the assay on HCT-15 colon, in the assay with IGROV1 ovarian, in the assay on KM12 colon, with SF-295 CNS and with SF-539 CNS was more than 100 µM in each case. Further, the TGI in the assay on SNB-75 CNS, with SW-620 colon, with U251 CNS and in the assay with UACC-257 melanoma was more than 100 µM in each case.

On to `O=C(CCc1nc(=S)[nH][nH]1)Nc1cc(Cl)c(Cl)cc1Cl`, for which the TGI in the assay with ACHN renal, in the assay on HCT-15 colon, in the assay on IGROV1 ovarian, in the assay with KM12 colon, with SF-295 CNS and in the assay on SF-539 CNS was more than 100 µM in each case. Further, the TGI in the assay with SNB-75 CNS, in the assay with SW-620 colon, in the assay on U251 CNS and in the assay with UACC-257 melanoma was more than 100 µM in each case.

In the case of `Nc1nc(-n2c(-c3ccccc3)nc3c(Br)cc(Br)cc3c2=O)nnc1-c1cccc(Cl)c1Cl`, the GI50 in the assay with ACHN renal is 12.2 µM; in the assay with HCT-15 colon it was 3.1 µM; with IGROV1 ovarian, 12.9 µM; in the assay on KM12 colon, 3.29 µM; in the assay on SF-295 CNS, 11.2 µM; in the assay with SF-539 CNS, 7.8 µM. Further, the GI50 in the assay with SNB-75 CNS is 8.65 µM; in the assay on SW-620 colon it was 5.15 µM; with U251 CNS it was 6.87 µM; in the assay with UACC-257 melanoma, 22.3 µM. For the same compound, the TGI in the assay on ACHN renal was found to be 40.2 µM; in the assay on HCT-15 colon, 21.9 µM; with IGROV1 ovarian, 45.9 µM; with KM12 colon, 63.4 µM; in the assay with SF-295 CNS, 34.8 µM; in the assay on SF-539 CNS it was 40.4 µM. In addition, the TGI is 46.7 µM in the assay on SNB-75 CNS, more than 100 µM in the assay with SW-620 colon, 27.1 µM in the assay with U251 CNS and more than 100 µM in the assay with UACC-257 melanoma.
